{"source": "patent US20250170176A1", "about": "“METHODS OF TREATMENT WITH CAR CELLS IN COMBINATION WITH S1P RECEPTOR MODULATORS” (PRIOTHERA SAS, priority 2022, published 2025)", "key": {"IFN-g, TNF-α and IL-2": {"system": "IFN-g, TNF-α and IL-2", "assay": "Kinetics of plasma cytokines (BD CBA Human Th1/Th2/Th17) in JEKO-1 bearing NCG mice given CAR T cells (Example 3)", "type": "in vivo, mouse (NCG)", "conditions": "5 days after CAR-T cells; mocravimod 3 mg/kg every second day from day 6", "protocol": "(§1) To determine the kinetics of cytokine secretion and to evaluate the effectiveness of mocravimod in reducing the level of circulating cytokines when administered in combination with CAR T cells, NOD CRISPR Prkdc 112r Gamma (NCG) mice were injected i.v. with 5×10^6 JEKO-1-luc-GFP tumor cells. Treatment with either mocravimod or vehicle started on day 6 after tumor cell engraftment. Mocravimod (3 mg/kg) was administered every second day. 0.75×10^6 CAR T cells were injected i.v. on day 7 after tumor cell engraftment. Mice were bled 24 h, 48 h, 72 h, 96 h and 120 h post CAR T cell injection and plasma was collected. Interferon-g (IFN-g), Tumor necrosis factor-a (TNF-α) and Interleukin-2 (IL-2) were analyzed in plasma samples using the BD CBA Human Th1/Th2/Th17 cytokine assay. CAR T cells were phenotyped and enumerated in blood."}, "CAR-T cells [1]": {"system": "CAR-T cells", "assay": "CAR-T cell activation markers by flow cytometry in leukemia mice (Example 1)", "type": "in vivo, mouse (C57BL/6J)", "conditions": "KRP203 administered from day −1", "source_text": "6 to 8-week-old C57BL/6J male mice were obtained from Envigo. Ubi-GFP RAG1−/−OT-I TCR mice were bred and crossed in our animal facility under specific pathogen-free conditions. All experiments were approved by Institut Pasteur's Safety Committee in accordance with French and European guidelines (CETEA 2017-0038). Immortalized pro-B cells were generated by infecting bone marrow cells with a retrovirus encoding viral-Abelson kinase (v-abl). This tumor cell line was then retrovirally transduced to express a fluorescence resonance energy transfer (FRET)-based reporter for caspase 3 activity. Mice were examined every day and sacrificed in case of prostration, tousled hair, weakness or nodal tumor mass >1 cm. Cells were cultured in RPMI medium 1640-GlutaMAX™ supplemented with 10% heat-inactivated fetal bovine serum, 50 U·mL-1 penicillin, 50 μg·mL-1 streptomycin, 1 mM sodium pyruvate, 10 mM HEPES and 50 μM 2-mercaptoethanol, and maintained at 37° C. and 5% CO2. Cells were routinely tested for the absence of Mycoplasma contamination (Venor-GeM Advance mycoplasma detection kit, Minerva Biolabs). […]\nFor ex vivo analysis, bone marrow cells were isolated by flushing femurs and tibias from tumor-bearing mice and subsequent filtering through 70 μm cell strainers. […] Analyses were performed using a Cytoflex LX (Beckman Coulter) flow cytometer and analyzed with FlowJo v10.8.0 (BD). […]"}, "CAR-T cells [2]": {"system": "CAR-T cells", "assay": "Absolute numbers of CAR-T cells in blood (Example 3)", "type": "in vivo, mouse (NCG)", "conditions": "mocravimod with CAR-T cells", "protocol": "as §1\nThe same protocol as example 1 has been conducted for the method of analyzing CAR-T cells in bone marrow and the same protocol as the cytokine assay has been conducted for the method of analyzing CAR-T cells in blood."}, "[3]": {"system": "absolute lymphocyte counts", "conditions": "healthy volunteers; multiple dose applications for 28 days; cited from earlier work"}}}
{"smiles": "NC(CO)(CO)CCc1ccc(Sc2cccc(OCc3ccccc3)c2)cc1Cl", "note": "[mocravimod, 2-amino-2-[4-(3-benzyloxyphenylthio)-2-chlorophenyl]ethyl-propane-1,3-diol]", "values": [{"measurement": "level of IFN-g in blood (plasma)", "setting": "IFN-g, TNF-α and IL-2", "value": "around 100 μg/mL"}, {"measurement": "level of IL-2 in blood (plasma)", "setting": "IFN-g, TNF-α and IL-2", "value": "around 2 μg/mL"}, {"measurement": "level of TNFa in blood (plasma)", "setting": "IFN-g, TNF-α and IL-2", "value": "around 0 μg/mL"}, {"measurement": "percentage of activation of CAR-T cells in lymph nodes, increase in comparison to the control", "setting": "CAR-T cells [1]", "value": "2-3 times"}, {"measurement": "absolute number of CAR-T cells in blood", "setting": "CAR-T cells [2]; day 1 after CAR-T injection", "value": "around 500"}, {"measurement": "absolute number of CAR-T cells in blood", "setting": "CAR-T cells [2]; day 3 after CAR-T injection", "value": "around 500"}, {"measurement": "absolute number of CAR-T cells in blood", "setting": "CAR-T cells [2]; day 5 after CAR-T injection", "value": "around 100"}]}
{"smiles": "CCc1cc(/C(C)=N/OCc2ccc(C3CCCCC3)c(C(F)(F)F)c2)ccc1CN1CC(C(=O)O)C1", "note": "[BAF312]", "values": [{"measurement": "Recovery of absolute lymphocyte counts to 80% of normal counts reached after", "setting": "[3]", "value": 7, "unit": "days"}]}
